Source: patent US20030152523A1, “Pharmaceutical composition for pulmonary delivery” (priority 2000, published 2003)

Tests used:
[1] = In-vitro deposition of BDP from dry powder formulations aerosolised via Rotahaler into a twin stage impinger (TSI); assay type: physicochemical; settings: TSI at 60 L/min, drug in lower stage of TSI
Source text: It was the aim of the current study to attempt to reduce the hydrophobic interaction that exists between BDP particles. Such interaction induces aggregate formation and potentially limits the fine particle dose available for pulmonary delivery. The objectives were to adsorb hydrophilic polymer to individual drug particles and to prepare a model dry powder formulation containing modified drug and lactose. A suspension of 1% w/v BDP in water containing either 0.05% or 0.1% PVA ((MWt 9-10 kDA) was spray dried to produce particles (volume mean diameter (VMD) 4.2 μm as determined by an Aerosizer time of flight particle sizing apparatus obtained from Amherst Process Instruments, Hadley, Mass., USA) suitable for intended delivery to the lung. The micronised drug (VMD […]) or spray dried drug was blended with lactose in a ratio 1:67.5 parts by weight and the resultant formulations filled into gelatin capsules for arosolisation via a Rotahaler device to a twin stage impinger (TSI) operated at 60 L min^−1. The Fine Particle Dose (FPD) (as determined from by the amount of drug reaching the lower stage of the TSI) was increased from 20.2 μg when micronised drug was employed to 46.7 μg when the lower PVA concentration was employed. […] The concentration of BDP was determined from calibration curves constructed using the standard solutions of BDP. […]

[2] = Particle size analysis by laser diffraction (Malvern 2600); assay type: physicochemical; settings: BDP dispersed in 1% (w/v) span 85 in cyclohexane
Description: 3 Particle Size Analysis:
The particle size of both micronised BDP and spray dried BDP was determined in a liquid medium by laser diffraction, according to an independent model, using a Malvern 2600 laser diffraction sizer (Malvern Instruments, Malvern, Worcs, UK). BDP was measured using a 63 mm lens, after dispersion in a solution of 1% (w/v) span 85 in cyclohexane, saturated with the drug. Each sample was measured in triplicate.

Fine particle dose (FPD) of BDP [1]: 20.2 µg
Volume mean diameter VMD(GSD) [2]: 5.18 (1.00) μm
Compound: CCC(=O)OCC(=O)[C@@]1(OC(=O)CC)[C@@H](C)C[C@H]2[C@@H]3CCC4=CC(=O)C=C[C@]4(C)[C@@]3(Cl)[C@@H](O)C[C@@]21C [micronised BDP, beclomethasone dipropionate]
